Our source for the EC50 values is US11168086B2, “Methods of synthesizing pyrazine compounds” (Hoffmann-La Roche Inc., priority 2015, dated 2021).

Molecules are shown by their SMILES.

For the assay, the system named is HBV. The assay is described as follows: HBV inhibition assay: anti-HBV activity in vitro in HepG2.2.15 cells (extracellular HBV DNA by qPCR). It is filed as cell-based. Particulars: Hepatitis B virus, 120 h, five days after compound treatment, extracellular HBV DNA in culture supernatant by qPCR, concentration at which HBV replication is inhibited by 50%. An outline of the steps:
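HepG2.2.15 cells (stably carrying HBV genome) treated with half-log serially diluted compounds at 0.5% DMSO final for five days. Extracellular HBV DNA in supernatant quantified by qPCR after Proteinase K digestion; EC50 is concentration giving 50% inhibition of replication.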
What is called EC50 is the concentration needed to bring the measured effect to its halfway point. High values mean lower potency in that assay, low ones higher potency in that assay. With `C[C@H]1Cn2ncc(N3CC(C)(C)COC3=O)c2CN1C(=O)Nc1cc(F)c(F)c(F)c1` [Example 294, (6S)-3-(5,5-dimethyl-2-oxo-1,3-oxazinan-3-yl)-6-methyl-N-(3,4,5-trifluorophenyl)-6,7-dihydro-4H-pyrazolo[1,5-a]pyrazine-5-carboxamide], the EC50 was 13 nM. The figure for `COCC1CC(=O)N(c2cnn3c2CN(C(=O)Nc2ccc(F)c(Cl)c2)[C@@H](C)C3)C1` (stereo partly drawn) [Example 295, (6S)—N-(3-chloro-4-fluoro-phenyl)-3-[4-(methoxymethyl)-2-oxo-pyrrolidin-1-yl]-6-methyl-6,7-dihydro-4H-pyrazolo[1,5-a]pyrazine-5-carboxamide] is 33 nM. As for `C[C@H]1Cn2ncc(N3CC4(CCOCC4)CC3=O)c2CN1C(=O)Nc1ccc(F)c(Cl)c1` [Example 296, (6S)—N-(3-chloro-4-fluoro-phenyl)-6-methyl-3-(3-oxo-8-oxa-2-azaspiro[4.5]decan-2-yl)-6,7-dihydro-4H-pyrazolo[1,5-a]pyrazine-5-carboxamide], a half-maximal response (EC50) required 30 nM. Next, `CC1CCN(c2cnn3c2CN(C(=O)Nc2ccc(F)c(Cl)c2)[C@@H](C)C3)C1=O` (stereo partly drawn) [Example 297, (6S)—N-(3-chloro-4-fluoro-phenyl)-6-methyl-3-(3-methyl-2-oxo-pyrrolidin-1-yl)-6,7-dihydro-4H-pyrazolo[1,5-a]pyrazine-5-carboxamide]: 68 nM; `C[C@H]1Cn2ncc(N3CC(CO)CC3=O)c2CN1C(=O)Nc1ccc(F)c(Cl)c1` (stereo partly drawn) [Example 298, (6S)—N-(3-chloro-4-fluoro-phenyl)-3-[4-(hydroxymethyl)-2-oxo-pyrrolidin-1-yl]-6-methyl-6,7-dihydro-4H-pyrazolo[1,5-a]pyrazine-5-carboxamide]: 104 nM; `COCC1CC(=O)N(c2cnn3c2CN(C(=O)Nc2cc(F)c(F)c(F)c2)[C@@H](C)C3)C1` (stereo partly drawn) [Example 299, (6S)-3-[4-(methoxymethyl)-2-oxo-pyrrolidin-1-yl]-6-methyl-N-(3,4,5-trifluorophenyl)-6,7-dihydro-4H-pyrazolo[1,5-a]pyrazine-5-carboxamide]: 80 nM. The figure for `CCC1CC(=O)N(c2cnn3c2CN(C(=O)Nc2ccc(F)c(Cl)c2)[C@@H](C)C3)C1` (stereo partly drawn) [Example 302, (6S)—N-(3-chloro-4-fluoro-phenyl)-3-(4-ethyl-2-oxo-pyrrolidin-1-yl)-6-methyl-6,7-dihydro-4H-pyrazolo[1,5-a]pyrazine-5-carboxamide] is 20 nM; for `C[C@H]1Cn2ncc(N3CC4(CCOC4)CC3=O)c2CN1C(=O)Nc1ccc(F)c(Cl)c1` (stereo partly drawn) [Example 303, (6S)—N-(3-chloro-4-fluoro-phenyl)-6-methyl-3-(8-oxo-2-oxa-7-azaspiro[4.4]nonan-7-yl)-6,7-dihydro-4H-pyrazolo[1,5-a]pyrazine-5-carboxamide] it is 81 nM; for `C[C@H]1Cn2ncc(N3CC(c4ccccc4)CC3=O)c2CN1C(=O)Nc1cc(F)c(F)c(F)c1` (stereo partly drawn) [Example 309, (6S)-6-methyl-3-(2-oxo-4-phenyl-pyrrolidin-1-yl)-N-(3,4,5-trifluorophenyl)-6,7-dihydro-4H-pyrazolo[1,5-a]pyrazine-5-carboxamide] it is 5 nM. Next, `C[C@H]1Cn2ncc(N3CC(N(C)C(=O)c4ncco4)CC3=O)c2CN1C(=O)Nc1cc(F)c(F)c(F)c1` (stereo partly drawn) [Example 318, N-methyl-N-[1-[(6S)-6-methyl-5-[(3,4,5-trifluorophenyl)carbamoyl]-6,7-dihydro-4H-pyrazolo[1,5-a]pyrazin-3-yl]-5-oxo-pyrrolidin-3-yl]oxazole-2-carboxamide]: 45 nM. `CC1CN(c2cnn3c2CN(C(=O)Nc2ccc(F)c(Cl)c2)[C@@H](C)C3)C(=O)O1` (stereo partly drawn) [Example 321, (6S)—N-(3-chloro-4-fluoro-phenyl)-6-methyl-3-(5-methyl-2-oxo-oxazolidin-3-yl)-6,7-dihydro-4H-pyrazolo[1,5-a]pyrazine-5-carboxamide] showed an EC50 of 47 nM. The figure for `CC1CN(c2cnn3c2CN(C(=O)Nc2ccc(F)c(Cl)c2)[C@@H](C)C3)C(=O)N1` (stereo partly drawn) [Example 326, (6S)—N-(3-chloro-4-fluoro-phenyl)-6-methyl-3-(4-methyl-2-oxo-imidazolidin-1-yl)-6,7-dihydro-4H-pyrazolo[1,5-a]pyrazine-5-carboxamide] is 46 nM; for `C[C@H]1Cn2ncc(N3CC(c4ccccc4)NC3=O)c2CN1C(=O)Nc1cc(F)c(F)c(F)c1` (stereo partly drawn) [Example 329, (6S)-6-methyl-3-(2-oxo-4-phenyl-imidazolidin-1-yl)-N-(3,4,5-trifluorophenyl)-6,7-dihydro-4H-pyrazolo[1,5-a]pyrazine-5-carboxamide] it is 4 nM.

As to `C[C@H]1Cn2ncc(N3CC4(CC4)OC3=O)c2CN1C(=O)Nc1cc(F)c(F)c(F)c1` [Example 331, (6S)-6-methyl-3-(5-oxo-4-oxa-6-azaspiro[2.4]heptan-6-yl)-N-(3,4,5-trifluorophenyl)-6,7-dihydro-4H-pyrazolo[1,5-a]pyrazine-5-carboxamide], the EC50 was 12 nM. Compound `C[C@H]1Cn2ncc(N3CC4(CCC4)OC3=O)c2CN1C(=O)Nc1cc(F)c(F)c(F)c1` [Example 332, (6S)-6-methyl-3-(6-oxo-5-oxa-7-azaspiro[3.4]octan-7-yl)-N-(3,4,5-trifluorophenyl)-6,7-dihydro-4H-pyrazolo[1,5-a]pyrazine-5-carboxamide] registered an EC50 of 11 nM.

Take `COC(=O)N1CC2(CC(=O)N(c3cnn4c3CN(C(=O)Nc3cc(F)c(F)c(F)c3)[C@@H](C)C4)C2)C1` [Example 333, methyl 6-[(6S)-6-methyl-5-[(3,4,5-trifluorophenyl)carbamoyl]-6,7-dihydro-4H-pyrazolo[1,5-a]pyrazin-3-yl]-7-oxo-2,6-diazaspiro[3.4]octane-2-carboxylate]: a half-maximal effect (EC50) was put at 46 nM.

In turn, `CCOC(=O)N1CC2(CC(=O)N(c3cnn4c3CN(C(=O)Nc3cc(F)c(F)c(F)c3)[C@@H](C)C4)C2)C1` [Example 334, ethyl 6-[(6S)-6-methyl-5-[(3,4,5-trifluorophenyl)carbamoyl]-6,7-dihydro-4H-pyrazolo[1,5-a]pyrazin-3-yl]-7-oxo-2,6-diazaspiro[3.4]octane-2-carboxylate] yielded an EC50 of 22 nM. Next, `C[C@H]1Cn2ncc(N3CC4(CC3=O)CN(C(=O)c3ncco3)C4)c2CN1C(=O)Nc1cc(F)c(F)c(F)c1` [Example 336, (6S)-6-methyl-3-[2-(oxazole-2-carbonyl)-7-oxo-2,6-diazaspiro[3.4]octan-6-yl]-N-(3,4,5-trifluorophenyl)-6,7-dihydro-4H-pyrazolo[1,5-a]pyrazine-5-carboxamide]: 66 nM.

Take `C[C@H]1Cn2ncc(N3CC4(CC3=O)CN(c3ncccn3)C4)c2CN1C(=O)Nc1cc(F)c(F)c(F)c1` [Example 337, (6S)-6-methyl-3-(7-oxo-2-pyrimidin-2-yl-2,6-diazaspiro[3.4]octan-6-yl)-N-(3,4,5-trifluorophenyl)-6,7-dihydro-4H-pyrazolo[1,5-a]pyrazine-5-carboxamide]: the EC50 is 15 nM. Next, `C[C@H]1Cn2ncc(N3C(=O)Cc4ccccc43)c2CN1C(=O)Nc1cc(F)c(F)c(F)c1` [Example 338, (6S)-6-methyl-3-(2-oxoindolin-1-yl)-N-(3,4,5-trifluorophenyl)-6,7-dihydro-4H-pyrazolo[1,5-a]pyrazine-5-carboxamide]: 14 nM; `C[C@H]1Cn2ncc(-c3ncc(F)cn3)c2CN1C(=O)Nc1cc(F)c(F)c(F)c1` [Example 341, (6S)-3-(5-fluoropyrimidin-2-yl)-6-methyl-N-(3,4,5-trifluorophenyl)-6,7-dihydro-4H-pyrazolo[1,5-a]pyrazine-5-carboxamide]: 40 nM; `C[C@H]1Cn2ncc(-n3cc(CO)cn3)c2CN1C(=O)Nc1cc(F)c(F)c(F)c1` [Example 342, (6S)-3-[4-(hydroxymethyl)pyrazol-1-yl]-6-methyl-N-(3,4,5-trifluorophenyl)-6,7-dihydro-4H-pyrazolo[1,5-a]pyrazine-5-carboxamide]: 41 nM. Next, `C[C@H]1Cn2ncc(N3CC(c4ccccc4)OC3=O)c2CN1C(=O)Nc1cc(F)c(F)c(F)c1` (stereo partly drawn) [Example 344, (6S)-6-methyl-3-(2-oxo-5-phenyl-oxazolidin-3-yl)-N-(3,4,5-trifluorophenyl)-6,7-dihydro-4H-pyrazolo[1,5-a]pyrazine-5-carboxamide]: 7 nM; `C[C@H]1Cn2ncc(N3CC(c4ccccn4)OC3=O)c2CN1C(=O)Nc1cc(F)c(F)c(F)c1` (stereo partly drawn) [Example 345, (6S)-6-methyl-3-[2-oxo-5-(2-pyridyl)oxazolidin-3-yl]-N-(3,4,5-trifluorophenyl)-6,7-dihydro-4H-pyrazolo[1,5-a]pyrazine-5-carboxamide]: 17 nM; `C[C@H]1Cn2ncc(N3CC(c4ccncc4)OC3=O)c2CN1C(=O)Nc1cc(F)c(F)c(F)c1` (stereo partly drawn) [Example 346, (6S)-6-methyl-3-[2-oxo-5-(4-pyridyl)oxazolidin-3-yl]-N-(3,4,5-trifluorophenyl)-6,7-dihydro-4H-pyrazolo[1,5-a]pyrazine-5-carboxamide]: 12 nM. For the compound `C[C@H]1Cn2ncc(N3CC(c4cocn4)OC3=O)c2CN1C(=O)Nc1cc(F)c(F)c(F)c1` (stereo partly drawn) [Example 348, (6S)-6-methyl-3-(5-oxazol-4-yl-2-oxo-oxazolidin-3-yl)-N-(3,4,5-trifluorophenyl)-6,7-dihydro-4H-pyrazolo[1,5-a]pyrazine-5-carboxamide], the EC50 was 94 nM. The figure for `Cc1ncc(C2CC(=O)N(c3cnn4c3CN(C(=O)Nc3cc(F)c(F)c(F)c3)[C@@H](C)C4)C2)o1` (stereo partly drawn) [Example 349, (6S)-6-methyl-3-[4-(2-methyloxazol-5-yl)-2-oxo-pyrrolidin-1-yl]-N-(3,4,5-trifluorophenyl)-6,7-dihydro-4H-pyrazolo[1,5-a]pyrazine-5-carboxamide] is 15 nM. Next, `Cc1nc(C2CC(=O)N(c3cnn4c3CN(C(=O)Nc3cc(F)c(F)c(F)c3)[C@@H](C)C4)C2)co1` (stereo partly drawn) [Example 350, (6S)-6-methyl-3-[4-(2-methyloxazol-4-yl)-2-oxo-pyrrolidin-1-yl]-N-(3,4,5-trifluorophenyl)-6,7-dihydro-4H-pyrazolo[1,5-a]pyrazine-5-carboxamide]: 15 nM.
